{"source": "patent US7138486B2", "about": "“Insulinotropic hormone derivatives and uses thereof” (The General Hospital Corporation, priority 1986, dated 2006)", "key": {"[1]": {"molecular_target": "receptor involved in the recognition of glucagon", "assay": "cell-based or functional assay"}, "βTC-1 cells [2]": {"tested_on": "βTC-1 cells", "assay": "Proinsulin biosynthesis ([3H]leucine labelling)", "assay_type": "cell-based, mouse", "details": "10 μM; 6 hours labeling", "description": "βTC-1 cells (Efrat et al., Proc. Natl. Acad. Sci. (USA) 85:9037–9041 (1988)) were grown in a humidified atmosphere at 37° C. in RPMI 1640 medium supplemented with 10% (vol/vol) fetal bovine serum, 5% (vol/vol) horse serum, 100 U/ml penicillin and 100 μg/ml streptomycin. Media were changed after three days and cells were split 1:3 after six days.\nβTC-1 cells were plated into 35 mm plates and grown for two days to reach 80–90% confluency. During a 6 hour labeling period cells were incubated in 1 ml RPMI 1640 supplemented with 0.1% human serum albumin, 0.1% bacitracin and 50 μCi[^3H]leucine. Forskolin, IBMX, 8-Bromo-cAMP and GLP-1(7-37) were added from stock solutions as described (see “cell transfection”). Cells were harvested in PBS and lysed by three freeze-thaw cycles. Immunoreactive proinsulin was precipitated with an antiserum raised in rabbits against pork insulin that was coupled to a 10% suspension of bacterial lysates (Saureus) containing protein A. Radioactivity contained in the resulting pellets was counted using a lliquid scintillation counter. Incorporation of [^3H]leucine into total protein was measured in trichloroacetic acid precipitates of the cells. None of the agents tested had any effects on [^3H]leucine incorporation into TCA precipitable proteins. Data are expressed as fold-induction of proinsulin biosynthesis above those in the control experiments (no treatment)."}, "βTC-1 cells [3]": {"tested_on": "βTC-1 cells", "assay": "Cellular insulin content by radioimmunoassay", "assay_type": "cell-based, mouse", "details": "10 μM; 24 hours", "protocol": "Two days before the experiment commenced, cells were plated into 35 mm plates. Media were changed to RPMI 1640 supplemented with 0.1% human serum albumin and 0.1% bacitracin. […] After incubation for 24 hours under these conditions, cells were washed three times with PBS and harvested in 1.5 ml buffer containing 150 mM NaCl, 1 mM EDTA and 40 mM Tris/Cl pH 7.4 and resuspended in 200 μl PBS. Fifty μl of this cell suspension were resuspended in 1 ml 1 M acetic acid and extracted for 16 hours at 4° C. Aliquots (2 and 20 μl) were lyophilized and reconstituted in insulin-RIA buffer. The cell number of each plate was controlled by determination of total protein in the initial cell lysate. […] Insulin was measured with a radioimmunoassay system using an antiserum raised in rabbits against pork insulin and pork insulin as the standard. […] Data are presented as fold-increase of insulin content per well above the control experiments (no treatment)."}, "[4]": {"tested_on": "rat insulin I gene promoter in βTC-1 cells", "assay": "CAT activity in cells transiently transfected with −410 Ins-CAT plasmid", "assay_type": "cell-based, mouse", "details": "10 μM; 24 hours", "protocol": "Cells of two 80–90% confluent 150 mm culture plates were trypsinized and transfected in solution in one tube with 15 μg of indicator plasmid using the DEAE-dextran method. The plasmid contained 410 bp of the rat insulin I gene promoter fused to the transcriptional reporter gene encoding the bacterial enzyme chloramphenicol-acetyltransferase (CAT). […] Subsequently cells were plated into 18 wells of six well plates. […] Thereby, differences in transfection deficiencies reflected in CAT activities were normalized against protein concentrations as well as the respective control experiments. After transfection cells were incubated in RPMI 1640 supplemented with 0.1% human serum albumin and 0.1% bacitracin. […] After extraction with ethylacetate (1 ml) acetylated and non-acetylated ^14C-chloramphenicol were separated by thin-layer chromatography (chloroform:methanol 9:1), identified by autoradiography and the respective spots were scraped from the plates and radioactivity was counted in a scintillation counter."}}}
{"compound": "CC[C@H](C)[C@H](NC(=O)[C@H](Cc1ccccc1)NC(=O)[C@H](CCC(=O)O)NC(=O)[C@H](CCCCN)NC(=O)[C@H](C)NC(=O)[C@H](C)NC(=O)[C@H](CCC(N)=O)NC(=O)CNC(=O)[C@H](CCC(=O)O)NC(=O)[C@H](CC(C)C)NC(=O)[C@H](Cc1ccc(O)cc1)NC(=O)[C@H](CO)NC(=O)[C@H](CO)NC(=O)[C@@H](NC(=O)[C@H](CC(=O)O)NC(=O)[C@H](CO)NC(=O)[C@@H](NC(=O)[C@H](Cc1ccccc1)NC(=O)[C@@H](NC(=O)CNC(=O)[C@H](CCC(=O)O)NC(=O)[C@H](C)NC(=O)[C@H](Cc1cnc[nH]1)NC(=O)[C@H](CCCNC(=N)N)NC(=O)[C@H](CCC(=O)O)NC(=O)[C@H](Cc1ccccc1)NC(=O)[C@H](CCC(=O)O)NC(=O)[C@H](CC(=O)O)NC(=O)[C@@H](N)Cc1cnc[nH]1)[C@@H](C)O)[C@@H](C)O)C(C)C)C(=O)N[C@@H](C)C(=O)N[C@@H](Cc1c[nH]c2ccccc12)C(=O)N[C@@H](CC(C)C)C(=O)N[C@H](C(=O)N[C@@H](CCCCN)C(=O)NCC(=O)N[C@@H](CCCNC(=N)N)C(=O)NCC(=O)O)C(C)C", "note": "[GLP-1(1-37)]", "values": [{"measurement": "half-life", "setting": "Biological half-life", "value": "15 to 20", "unit": "min"}]}
{"compound": "glucagon (from UniProt P01275 53-81) (peptide)", "values": [{"measurement": "mean perfusate insulin concentration, perfused rat pancreas, glucagon alone at 10^-9 M", "setting": "[1]", "value": 4.98, "unit": "ng/mL"}]}
{"compound": "C=C[C@@]1(C)CC(=O)[C@]2(O)[C@@]3(C)[C@@H](O)CCC(C)(C)[C@@H]3[C@H](O)[C@H](OC(C)=O)[C@@]2(C)O1", "note": "[Forskolin, forskolin]", "values": [{"measurement": "Increase of proinsulin biosynthesis", "setting": "βTC-1 cells [2]", "value": "1.53±0.06", "unit": "fold"}, {"measurement": "Increase of total cellular insulin content", "setting": "βTC-1 cells [3]", "value": "1.49±0.18", "unit": "fold"}, {"measurement": "Increase of CAT activity", "setting": "[4]", "value": "3.3±0.57", "unit": "fold"}]}
